Test results taken from patent publication US8748481B2, “Method for treating gastrointestinal disorder” (Sucampo AG, priority 2004, dated 2014).

How the values were obtained:
Assay type in all cases: in vivo, human
[1] = Serum electrolyte balance, open-label 24/48-week safety study (Example 1)
Experimental: (§1) Multi-center, open-label study was performed to evaluate the safety of 48 μg of Compound A (13,14-dihydro-15-keto-16,16-difluoro-PGE1) (24 μg of Compound A b.i.d) when administered daily for 24 weeks (6 months) or 48 weeks (12 months) to subjects with occasional constipation. […] After 14-day drug-free washout period, they received 48 μg of Compound A (24 μg of Compound A b.i.d) orally for 48 weeks.
Sodium, potassium, chloride, calcium, magnesium and phosphorus ion concentrations in serum of patients (n=299) were measured before, and at 6, 12, 18, 24, 30, 36, 48 and 50 weeks after the start of the Compound A treatment.
The laboratory standard values for the panel of electrolytes were taken from the normal reference ranges for the central laboratory.

[2] = tested on: subjects with occasional constipation; experiment: Severity of constipation, abdominal bloating and abdominal discomfort during 6 and 12 months treatment (Example 1); settings: 48 μg/day, 6 months and 12 months treatment
Experimental: as §1
Each parameter (Severity of Constipation, Abdominal bloating or Abdominal discomfort) was evaluated on the scale of: 0 (absent), 1 (mild), 2 (moderate), 3 (severe) and 4 (very severe) in the patients during 6 months (n=246) or 12 months (n=304) treatments.

[3] = tested on: patients with chronic constipation; experiment: Randomized withdrawal study, post-treatment response after 4 weeks of active treatment (Example 2)
Experimental: Multi-center, double-blind, randomized, placebo-controlled study was performed to assess post-treatment response, in a portion of the total population, after four (4) weeks of active treatment (48 μg Compound A total daily dose) and three (3) weeks randomized withdrawal period. […] After 14-day drug-free washout period, they received orally 48 μg (total daily dose) of Compound A for 28 days followed by either 0 or 48 μg (total daily dose) of Compound A for 21 days.
In this study, the following parameters were evaluated. • 1) Bowel movements per week • 2) Abdominal bloating • 3) Abdominal discomfort • 4) Severity of Constipation • 5) Straining • 6) Consistency
Each parameter (Abdominal bloating, Abdominal discomfort, Severity of Constipation or Straining) was evaluated on the scale of: 0 (absent), 1 (mild), 2 (moderate), 3 (severe) and 4 (very severe) in the patients. Consistency was evaluated on a scale of: 0 (very loose), 1 (loose), 2 (normal), 3 (hard) and 4 (very hard, little balls)

[4] = tested on: male and female patients with occasional constipation; experiment: Weekly number of spontaneous bowel movements in male vs. female patients (Example 4); settings: 48 μg/day, 4 weeks
Experimental: (§2) Multi-center, parallel-group, double-blind, placebo-controlled study was performed to compare the effect of Compound A on the weekly number of spontaneous bowel movements in male and female patients. Male and female patients with occasional constipation were received 48 μg (total daily dose) of Compound A (24 μg of Compound A b.i.d) for 4 weeks. The bowel movements in the patient were recorded during the treatment.

[5] = tested on: different aged patients with occasional constipation; experiment: Weekly number of spontaneous bowel movements by age (Example 5); settings: 48 μg/day, 4 weeks; all aged groups, even 65 years and older
Experimental: as §2, with “on improving” for “on the”, “movements among different aged” for “movements in male and female patients. Male and female”, “occasional constipation. The patients” for “occasional constipation”

[6] = Week 50 after start of 48-week treatment
[7] = 48 μg/day for 28 days, then 3 weeks withdrawal

## CCCCC(F)(F)C(=O)CCC1C(O)CC(=O)C1CCCCCCC(=O)O (centres unmarked) [Compound A, 13,14-dihydro-15-keto-16,16-difluoro-PGE1]
[1]; 48 μg/day, long-term administration up to 48 weeks
  Effect on sodium, potassium, chloride, calcium, magnesium and phosphorus ion concentration in serum: no effect
[1]; Week 0 (before treatment)
  Mean serum Calcium: 9.61 mg/dL
  Mean serum Chloride: 103.08 mmol/L
  Mean serum Magnesium: 2.18 mg/dL
  Mean serum Phosphorus: 3.65 mg/dL
  Mean serum Potassium: 4.28 mmol/L
  Mean serum Sodium: 141.00 mmol/L
[1]; Week 6, 48 μg/day oral
  Mean serum Calcium: 9.90 mg/dL
  Mean serum Chloride: 103.00 mmol/L
  Mean serum Magnesium: 2.23 mg/dL
  Mean serum Phosphorus: 3.20 mg/dL
  Mean serum Potassium: 4.28 mmol/L
  Mean serum Sodium: 142.25 mmol/L
[1]; Week 12, 48 μg/day oral
  Mean serum Calcium: 9.71 mg/dL
  Mean serum Chloride: 103.08 mmol/L
  Mean serum Magnesium: 2.24 mg/dL
  Mean serum Phosphorus: 3.57 mg/dL
  Mean serum Potassium: 4.20 mmol/L
  Mean serum Sodium: 139.78 mmol/L
[1]; Week 18, 48 μg/day oral
  Mean serum Calcium: 9.30 mg/dL
  Mean serum Chloride: 105.50 mmol/L
  Mean serum Magnesium: 2.35 mg/dL
  Mean serum Phosphorus: 3.55 mg/dL
  Mean serum Potassium: 4.40 mmol/L
  Mean serum Sodium: 141.50 mmol/L
[1]; Week 24, 48 μg/day oral
  Mean serum Calcium: 9.77 mg/dL
  Mean serum Chloride: 102.56 mmol/L
  Mean serum Magnesium: 2.21 mg/dL
  Mean serum Phosphorus: 3.61 mg/dL
  Mean serum Potassium: 4.19 mmol/L
  Mean serum Sodium: 139.21 mmol/L
[1]; Week 30, 48 μg/day oral
  Mean serum Calcium: 9.10 mg/dL
  Mean serum Chloride: 100.00 mmol/L
  Mean serum Magnesium: 2.30 mg/dL
  Mean serum Phosphorus: 2.50 mg/dL
  Mean serum Potassium: 4.30 mmol/L
  Mean serum Sodium: 136.00 mmol/L
[1]; Week 36, 48 μg/day oral
  Mean serum Calcium: 9.67 mg/dL
  Mean serum Chloride: 102.51 mmol/L
  Mean serum Magnesium: 2.19 mg/dL
  Mean serum Phosphorus: 3.58 mg/dL
  Mean serum Potassium: 4.18 mmol/L
  Mean serum Sodium: 138.94 mmol/L
[1]; Week 48, 48 μg/day oral
  Mean serum Calcium: 9.66 mg/dL
  Mean serum Chloride: 102.88 mmol/L
  Mean serum Magnesium: 2.14 mg/dL
  Mean serum Phosphorus: 3.50 mg/dL
  Mean serum Potassium: 4.20 mmol/L
  Mean serum Sodium: 139.59 mmol/L
[1]; [6]
  Mean serum Calcium: 9.47 mg/dL
  Mean serum Chloride: 102.67 mmol/L
  Mean serum Magnesium: 2.31 mg/dL
  Mean serum Phosphorus: 3.54 mg/dL
  Mean serum Potassium: 4.49 mmol/L
  Mean serum Sodium: 139.11 mmol/L
[2]
  Efficacy on severity of constipation, abdominal bloating and abdominal discomfort (FIGS. 1 to 6): effective
[3]; 48 μg/day
  Quality of life of the patients: improved
[3]; [7]
  Efficacy after stopping the treatment (FIGS. 7 to 12): sustained
  Rebound effect after discontinuation of treatment (FIGS. 7 to 12): substantially no rebound effect
[4]
  Difference between the effects in male and female patients: no significant difference
[4]; both male and female patients
  Effect on weekly number of spontaneous bowel movements (FIG. 13): significantly effective
[5]
  Effect on weekly number of spontaneous bowel movements by age (FIG. 14): significantly effective
